# Where a name gives a salt, the structure may show the parent alone.
# Test system: not given
# Test: not given
# Conditions: from C=CCC(=O)Nc1cc(NC(=O)OC)ccc1-c1cc(C(CC=C)NC(=O)OC(C)(C)C)nc(C)n1; rcm bond; Grubbs II; DCM; 0.5 mM; 40.0 °C; 4.0 h
row,Structure (SMILES),"ring closure, yield of all isomers [%]"
1,COC(=O)Nc1ccc2c(c1)NC(=O)C/C=C/CC(NC(=O)OC(C)(C)C)c1cc-2nc(C)n1 (stereo not drawn),22

# Same assay, conditions: from C=CCCC(=O)Nc1cc(NC(=O)OC)ccc1-c1ccnc([C@H](CC=C)NC(=O)OC(C)(C)C)c1; rcm bond; Grubbs II; DCM; 0.99 mM; 40.0 °C; 1.5 h
row,Structure (SMILES),"ring closure, yield of all isomers [%]"
1,COC(=O)Nc1ccc2c(c1)NC(=O)CCC=CC[C@H](NC(=O)OC(C)(C)C)c1cc-2ccn1,75

# Same assay, conditions: from C=CCCCc1ccccc1-c1cn(COCC[Si](C)(C)C)c([C@H](CC=C)NC(=O)OC(C)(C)C)n1; rcm bond; Grubbs II; DCM; 0.97 mM; 40.0 °C; 1.0 h
row,Structure (SMILES),"ring closure, yield of all isomers [%]"
1,CC(C)(C)OC(=O)N[C@H]1CC=CCCCc2ccccc2-c2cn(COCC[Si](C)(C)C)c1n2,62.9

# Same assay, conditions: from C=CCCOc1ccccc1-c1cn(COCC[Si](C)(C)C)c([C@H](CC=C)NC(=O)OC(C)(C)C)n1; rcm bond; Grubbs II; DCM; 1.02 mM; 40.0 °C; 1.0 h
row,Structure (SMILES),"ring closure, yield of all isomers [%]"
1,CC(C)(C)OC(=O)N[C@H]1CC=CCCOc2ccccc2-c2cn(COCC[Si](C)(C)C)c1n2,29

# Same assay, conditions: from C=CC[C@H](NC(=O)OC(C)(C)C)c1nc(-c2ccc(NC(=O)OC)cc2NC(=O)CCC(=C)C)cn1COCC[Si](C)(C)C; rcm bond; Grubbs II; DCE; 105.0 mM; 120.0 °C; 0.33 h
row,Structure (SMILES),"ring closure, yield of all isomers [%]"
1,COC(=O)Nc1ccc2c(c1)NC(=O)CCC(C)=CC[C@H](NC(=O)OC(C)(C)C)c1nc-2cn1COCC[Si](C)(C)C,34.6

# Same assay, conditions: from C=CC[C@H](NC(=O)OC(C)(C)C)c1nc(-c2ccc(NC(=O)OC)cc2N[C@H](CC=C)C(=O)OC)cn1COCC[Si](C)(C)C; rcm bond; Grubbs II; DCE; 40.0 mM; 120.0 °C; 0.33 h
row,Structure (SMILES),"ring closure, yield of all isomers [%]"
1,COC(=O)Nc1ccc2c(c1)N[C@@H](C(=O)OC)CC=CC[C@H](NC(=O)OC(C)(C)C)c1nc-2cn1COCC[Si](C)(C)C,30

# Same assay, conditions: from CNCCCc1cc(NC(=O)OC)ccc1-c1cn(COCC[Si](C)(C)C)c([C@H](CC(=O)O)NC(=O)OC(C)(C)C)n1; amide bond; BOP; DCM; 8.64 mM; 25.0 °C; 2.0 h
row,Structure (SMILES),"ring closure, yield of all isomers [%]"
1,COC(=O)Nc1ccc2c(c1)CCCN(C)C(=O)C[C@H](NC(=O)OC(C)(C)C)c1nc-2cn1COCC[Si](C)(C)C,39.4

# Same assay, conditions: from COC(=O)Nc1ccc(-c2cn(COCC[Si](C)(C)C)c([C@H](CN(CCC(=O)O)C(=O)OC(C)(C)C)NC(=O)OCc3ccccc3)n2)c(N)c1; amide bond; BOP; DCM; 0.93 mM; 25.0 °C; 5.0 h
row,Structure (SMILES),"ring closure, yield of all isomers [%]"
1,COC(=O)Nc1ccc2c(c1)NC(=O)CCN(C(=O)OC(C)(C)C)C[C@H](NC(=O)OCc1ccccc1)c1nc-2cn1COCC[Si](C)(C)C,87

# Same assay, conditions: from COC(=O)c1ccc(-c2cc(C(CC(=O)O)NC(=O)OC(C)(C)C)c(Cl)nn2)c(OCCN)c1; amide bond; BOP; DCM; 1.28 mM; 25.0 °C; 2.5 h
row,Structure (SMILES),"ring closure, yield of all isomers [%]"
1,COC(=O)c1ccc2c(c1)OCCNC(=O)CC(NC(=O)OC(C)(C)C)c1cc-2nnc1Cl (stereo not drawn),15.3

# Biological target: purified human Factor XIa (Homo sapiens (Human), UniProt P03951)
# Sequence (P03951 388-625): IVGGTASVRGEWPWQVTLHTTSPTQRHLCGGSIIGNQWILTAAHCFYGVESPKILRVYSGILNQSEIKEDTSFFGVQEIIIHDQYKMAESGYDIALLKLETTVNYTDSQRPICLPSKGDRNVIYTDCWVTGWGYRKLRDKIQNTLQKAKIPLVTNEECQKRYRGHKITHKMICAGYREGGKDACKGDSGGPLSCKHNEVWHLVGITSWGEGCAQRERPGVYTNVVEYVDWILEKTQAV
# Sequence (P03951 19-387 partner): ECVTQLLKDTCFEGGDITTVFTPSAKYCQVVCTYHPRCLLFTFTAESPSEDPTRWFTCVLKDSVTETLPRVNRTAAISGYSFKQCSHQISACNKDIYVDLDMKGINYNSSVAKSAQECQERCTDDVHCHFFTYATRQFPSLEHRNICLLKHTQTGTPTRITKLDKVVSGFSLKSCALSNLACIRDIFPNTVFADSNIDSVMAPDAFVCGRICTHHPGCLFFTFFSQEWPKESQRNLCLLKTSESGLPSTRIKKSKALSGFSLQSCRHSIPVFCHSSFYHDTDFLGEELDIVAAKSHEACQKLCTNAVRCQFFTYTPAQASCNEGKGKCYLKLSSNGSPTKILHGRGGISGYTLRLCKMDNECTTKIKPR
# Test: Factor XIa enzyme inhibition assay (chromogenic substrate S-2366)
# Type: biochemical
# Conditions: substrate S-2366, pH 7.4
# Method: The effectiveness of compounds of the present invention as inhibitors of the coagulation Factors XIa, VIIa, IXa, Xa, XIIa, plasma kallikrein or thrombin, can be determined using a relevant purified serine protease, respectively, and an appropriate synthetic substrate. The rate of hydrolysis of the chromogenic or fluorogenic substrate by the relevant serine protease was measured both in the absence and presence of compounds of the present invention. […] A decrease in the rate of absorbance or fluorescence change in the presence of inhibitor is indicative of enzyme inhibition. Such methods are known to one skilled in the art. The results of this assay are expressed as the inhibitory constant, Ki.
# Values of Ki were determined by allowing the protease to react with the substrate in the presence of the inhibitor. Reactions were allowed to go for periods of 20-180 minutes (depending on the protease) and the velocities (rate of absorbance or fluorescence change versus time) were measured. The following relationships were used to calculate Ki values: (vo−vs)/vs=I/(Ki(1+S/Km)) for a competitive inhibitor with one binding site; or vs/vo=A+((B−A)/1+((IC50/(I)n))); and Ki=IC50/(1+S/Km) for a competitive inhibitor where: […]
row,Structure (SMILES),Ki [µM]
1,"COC(=O)Nc1ccc2c(c1)NC(=O)CCCC[C@H](NC(=O)/C=C/c1cc(Cl)ccc1-n1cnnn1)C1=NC=C2O1 [Example I-134, Methyl N-[(14S)-14-[(2E)-3-[5-chloro-2-(1H-1,2,3,4-tetrazol-1-yl)phenyl]prop-2-enamido]-9-oxo-18-oxa-8,16-diazatricyclo[13.2.1.0^2,7]octadeca-1(17),2(7),3,5,15-pentaen-5-yl]carbamate, trifluoroacetic acid salt]",< 0.005
2,COC(=O)Nc1ccc2c(c1)NC(=O)CC/C=C/C[C@H](NC(=O)c1ccc3c(c1)CCNC3)c1nc-2c[nH]1 [Example I-151],< 0.005
3,"Cc1cc(F)c(C(=O)N[C@H]2C/C=C/CCC(=O)Nc3cc(NC(=O)OCCN(C)C)ccc3-c3nc2[nH]c3Cl)c(F)c1 [Example I-183, [(E)-(S)-18-Chloro-15-(2,6-difluoro-4-methyl-benzoylamino)-9-oxo-8,17,19-triaza-tricyclo[14.2.1.0^2,7]nonadeca-1(18),2,4,6,12,16(19)-hexaen-5-yl]-carbamic acid 2-dimethylamino-ethyl ester, 2 TFA]",4.95
4,"CCOC(=O)[C@H]1CCCC[C@H](NC(=O)/C=C/c2cc(Cl)ccc2-n2cnnn2)c2nc(c(C)[nH]2)-c2ccc(NC(=O)OC)cc2N1 [Example I-242, (9R,14S)-14-[(E)-3-(5-Chloro-2-tetrazol-1-yl-phenyl)-acryloylamino]-5-methoxycarbonylamino-17-methyl-8,16,18-triaza-tricyclo[13.2.1.0^2,7]octadeca-1(17),2,4,6,15(18)-pentaene-9-carboxylic acid ethyl ester, bis-trifluoroacetic acid salt]",0.456
5,COC(=O)Nc1ccc2c(c1)CC(C(=O)N(C)C)CCCC[C@H](NC(=O)/C=C/c1cc(Cl)ccc1-n1cnnn1)c1nc-2c[nH]1 (stereo partly drawn) [Example I-258],0.947
6,COC(=O)Nc1ccc2c(c1)NC(C(F)(F)F)CCCC[C@H](NC(=O)C1CCC(CN)CC1)c1cc-2ccn1 (stereo partly drawn) [II-13],< 0.005
7,COC(=O)Nc1ccc2c(c1)NC(C(F)(F)F)CCCC[C@H](NC(=O)c1ccc(C(=N)N)cc1)c1cc-2ccn1 (stereo partly drawn) [II-15],4.16
8,CCOC(=O)C1CCCC[C@H](NC(=O)/C=C/c2cc(Cl)ccc2-n2cnnn2)c2cc(ccn2)-c2ccc(NC(=O)OC)cc2N1 (stereo partly drawn) [II-18],0.572
9,CCOC(=O)[C@@H]1CCCC[C@H](NC(=O)/C=C/c2c(-n3cnnn3)ccc(Cl)c2F)c2cc(ccn2)-c2ccc(NC(=O)OCCOC)cc2N1 [II-43],0.938

# Other lines, results leading:
row,Ki [µM],Structure (SMILES)
1,< 0.005,O=C(/C=C/c1cc(Cl)ccc1-n1cnnn1)N[C@H]1CCCCCNc2cc(NC(=O)OC[C@H]3CCCO3)ccc2-c2c[nH]c1n2 [Example I-124]
2,0.021,COC(=O)Nc1ccc2c(c1)NC(=O)CC/C=C/C[C@H](NC(=O)c1ccc3c(c1)CCC[C@H]3N)c1nc-2c[nH]1 [Example I-152]
3,1.65,COC(=O)Nc1ccc2c(c1)NC(=O)CC/C=C/C[C@H](NC(=O)c1ccc3c(c1)CCC[C@@H]3N)c1nc-2c[nH]1 [Example I-153]
4,2.17,COC(=O)Nc1ccc2c(c1)NC(C(F)(F)F)CC/C=C/C[C@H](NC(=O)/C=C/c1cc(Cl)ccc1-n1cnnn1)c1nc-2c[nH]1 (stereo partly drawn) [Example I-211]
5,< 0.005,O=C(/C=C/c1cc(Cl)ccc1-n1cnnn1)N[C@H]1C/C=C/CCC(=O)Nc2ccc(F)cc2-c2nc1[nH]c2Cl [Example I-227]
6,< 0.005,"CCOC(=O)[C@H]1CCCC[C@H](NC(=O)/C=C/c2cc(Cl)ccc2-n2cnnn2)c2nc(c(C#N)[nH]2)-c2ccc(NC(=O)OC)cc2N1 [Example I-251, (9R,14S)-14-[(E)-3-(5-Chloro-2-tetrazol-1-yl-phenyl)-acryloylamino]-17-cyano-5-methoxycarbonylamino-8,16,18-triaza-tricyclo[13.2.1.0^2,7]octadeca-1(17),2,4,6,15(18)-pentaene-9-carboxylic acid ethyl ester, 2 TFA]"
7,0.675,COC(=O)Nc1ccc2c(c1)NC(=O)CCCC[C@H](NC(=O)c1ccc3cccnc3c1)c1nc-2c[nH]1 [Example I-262]
8,0.133,COC(=O)Nc1ccc2c(c1)NCCCCC[C@H](NC(=O)/C=C/c1c(C(C)=O)ccc(Cl)c1F)c1nc-2c(C#N)[nH]1 [Example I-265]
9,0.009,COC(=O)Nc1ccc2c(c1)NCCCCC[C@H](NC(=O)/C=C/c1cc(C)ccc1-n1cnnn1)c1nc-2c(C#N)[nH]1 [Example I-268]
10,1.75,"COC(=O)Nc1ccc2c(c1)C(=O)C(F)(F)CCCC[C@H](NC(=O)/C=C/c1cc(Cl)ccc1-n1cnnn1)c1nc-2c[nH]1 [Example I-270, {(S)-14-[(E)-3-(5-Chloro-2-tetrazol-1-yl-phenyl)-acryloylamino]-9,9-difluoro-8-oxo-16,18-diaza-tricyclo[13.2.1.0^2,7]octadeca-1(17),2,4,6,15(18)-pentaen-5-yl}-carbamic acid methyl ester, TFA salt]"
11,< 0.005,COCCOC(=O)Nc1ccc2c(c1)N[C@@H](C(=O)OC)CCCC[C@H](NC(=O)/C=C/c1cc(Cl)ccc1-n1cnnn1)c1nc-2c(C#N)[nH]1 [Example I-278]
12,0.102,COC(=O)c1ccc2c(c1)-c1c[nH]c(n1)[C@@H](NC(=O)/C=C/c1cc(Cl)ccc1-n1cnnn1)C/C=C/CCC(=O)N2 [Example I-284]
13,0.019,COC(=O)Nc1ccc2c(c1)NCCCCC[C@H](NC(=O)/C=C/c1cc(Cl)ccc1-n1cnnn1)c1nc-2c(C(=O)N(C)C)[nH]1 [Example I-299]
14,0.009,COC(=O)Nc1ccc2c(c1)NC(=O)CC/C=C/C[C@H](NC(=O)/C=C/c1cccc(Cl)c1)c1nc-2c(Cl)[nH]1 [Example I-309]
15,< 0.005,COC(=O)Nc1ccc2c(c1)NC(=O)CC/C=C/C[C@H](NC(=O)/C=C/c1c(C(F)(F)F)ccc(Cl)c1F)c1nc-2c(Cl)[nH]1 [Example I-311]
16,< 0.005,COC(=O)Nc1ccc2c(c1)NC(=O)CC/C=C/C[C@H](NC(=O)c1ccc(C(=N)N)cc1)c1cc-2ccn1 [II-3]
17,0.111,COC(=O)Nc1ccc2c(c1)NC(=O)CCCC[C@H](NC(=O)c1c(F)cc(C)cc1F)c1cc-2ccn1 [II-4]
18,0.023,COC(=O)Nc1ccc2c(c1)NC(=O)CCCCC(NC(=O)/C=C/c1cc(Cl)ccc1-n1cnnn1)c1cc-2nc(C)n1 (stereo not drawn) [II-10]
19,< 0.005,COC(=O)Nc1ccc2c(c1)N[C@@H](C(=O)N1CCN(C)CC1)CCCC[C@H](NC(=O)/C=C/c1cc(Cl)ccc1-n1cnnn1)c1cc-2ccn1 [II-35]
20,0.021,COC(=O)Nc1ccc2c(c1)N[C@@H](C(=O)NCc1ccccn1)CCCC[C@H](NC(=O)/C=C/c1cc(Cl)ccc1-n1cnnn1)c1cncc-2c1 [II-58]
21,< 0.005,CCOC(=O)C1CCCCC(NC(=O)/C=C/c2cc(Cl)ccc2-n2cnnn2)c2cc(cc(=O)[nH]2)-c2ccc(NC(=O)OC)cc2N1 (stereo not drawn) [II-62]

# — patent US8940720B2, “Macrocycles as factor XIa inhibitors” (Bristol-Myers Squibb Company, priority 2010, dated 2015)
